Laboratory results reported in article PMC10413649 (Science Advances, 2023).

What was measured:
[1] = test system: laser-induced DNA damage sites in U2OS cells; assay: Laser microirradiation, GFP-PAXX recruitment in mAID-Ku70 U2OS cells with WT or mutated Ku70; type: cell-based, human; settings: mAID-Ku70 U2OS cells + IAA, Fig. 3B
Text: We also purified three mutants of Ku70 complexed to WT Ku80 (fig. S7). […] To assess the impact of Ku70 mutations in cells, we engineered a system in U2OS cells to allow replacement of endogenous Ku70 by mutant forms of the protein (Fig. 3A). As Ku is essential for the viability of human cells, we first knocked down endogenous Ku70 expression via the constitutive expression of a short hairpin–mediated RNA (shRNA) combined with cell rescue through expression of Ku70 tagged with a mini auxin-inducible degron (mAID). This allows for rapid degradation of endogenous Ku70 upon addition of auxin [indole-3-acetic acid (IAA)] ([28]). This system permits a strong and fast Ku70 depletion, with concomitant Ku80 depletion due to reciprocal stabilization of both Ku subunits (Fig. 3A).
The generation of U2OS cells expressing a mAID-Ku70 in place of the endogenous protein was achieved as follows. First, U2OS cells were cotransduced with two lentiviral constructs allowing both the expression of an shRNA against Ku70 and the expression of a Ku70 protein resistant to the shRNA and fused to a mAID tag at its N terminus. The latter vector also expresses a puromycin resistance gene, enabling the selection of a transduced cell population. […]

[2] = test system: mutants of Ku70 complexed to WT Ku80; assay: ITC, mutant Ku70 (complexed to WT Ku80) with P-KBM; type: binding; settings: three Ku70 mutants complexed to WT Ku80 (fig. S7)
Text: DNA-PKcs and full-length His-tagged Ku70/80 were expressed and purified according to ([6]). For crystallography and ITC, the full-length Ku70/80 and a truncated version deleted of its C terminus regions called KuΔC [Ku70 (1 to 544)/Ku80 (1 to 555)], were expressed in Sf21 insect cells using a MultiBac expression system. The Ku80 subunit contains a 10xHis-tag, followed by a Tobacco Etch Virus (TEV) protease site on its N terminus. The Ku70/Ku80 heterodimer was purified according to the protocol described in ([10]). The three KuFL variants with single mutation H162A, R165E, or R517E on Ku70 subunits were expressed in insect cells and purified with the same protocol.
Interaction between Ku-DNA complex and the different peptides (WT and variants) was measured by isothermal calorimetry using a VP-ITC machine. For ITC measurements, the full-length Ku heterodimer was used with the DNA G and F as previously used in ([14]). Before measurements, the Ku heterodimer was extensively dialyzed against buffer [20 mM tris (pH 8), 150 mM NaCl, and 5 mM β-mercaptoethanol]. The cell reaction (1.8 ml) was loaded with the preformed Ku-DNA complex at a 1:1.2 molar ratio respectively. Ku was loaded at 5 μM concentration. The syringe (300 μl) was loaded with the different peptides at different concentrations ranging between 50 and 100 μM. The Ku-DNA complex was titrated by automatic injections of 10 μl at 25°C. […]

[3] = test system: damaged chromatin fraction of U2OS cells expressing WT or mutated Ku70; assay: Western blot of chromatin fractions after calicheamicin; type: cell-based, human; settings: 3 nM calicheamicin for 1 hour, Fig. 3E
XLF = assay: Direct PAXX-XLF interaction test; type: binding; settings: tested outside the DNA-PK LR complex; method not described
[4] = test system: laser-induced DNA damage sites in U2OS cells; assay: Laser microirradiation, GFP-PAXX and mCherry-XLF coexpressed in U2OS cells with WT or mutated Ku70; type: cell-based, human; settings: U2OS cells expressing Ku70 mutants; Fig. 5, B to E

Compound: WT Ku70: recombinant wild-type Ku70 used to replace degraded endogenous Ku70
- PAXX recruitment to microirradiated areas, restored by recombinant Ku70 ([1]; complemented with WT Ku70): restored to levels similar to those in native U2OS cells

Compound: CC[C@H](C)[C@H](NC(=O)[C@H](CC(C)C)NC(=O)[C@H](CO)NC(=O)[C@H](CCC(=O)O)NC(=O)CNC(=O)[C@@H]1CCCN1C(=O)[C@H](CS)NC(=O)[C@H](CCCNC(=N)N)NC(=O)[C@H](CCCNC(=N)N)NC(=O)[C@H](CCCNC(=N)N)NC(C)=O)C(=O)N[C@@H](CC(N)=O)C(=O)N1CCC[C@H]1C(=O)NCC(=O)N[C@@H](Cc1ccccc1)C(=O)N[C@@H](CCCCN)C(=O)N[C@@H](CO)C(=O)N[C@@H](CCCCN)C(=O)N[C@@H](CCCCN)C(=O)N1CCC[C@H]1C(=O)N[C@@H](C)C(=O)NCC(=O)NCC(=O)N[C@H](C(=O)N[C@@H](CC(=O)O)C(=O)N[C@@H](Cc1ccccc1)C(=O)N[C@@H](CC(=O)O)C(=O)N[C@@H](CCC(=O)O)C(=O)N[C@H](C(=O)O)[C@@H](C)O)C(C)C [KBM]
- residual interaction of Ku70 mutants with P-KBM (ITC, words) [2]: no residual interaction

Compound: PAXX: full-length PAXX, paralog of XRCC4 and XLF, 6xHis-tag, expressed in E. coli; WT protein also expressed in cells
- recruitment to damaged chromatin fraction, Ku70 Patch 1 or Patch 2 mutated [3]: not detected in damaged chromatin fraction
- direct interaction of PAXX and XLF (XLF): did not observe a direct interaction when tested
- PAXX recruitment to damage sites under Ku depletion ([1]; no complementation): abolished under Ku depletion conditions

Compound: GFP-PAXX: GFP-tagged PAXX construct expressed in U2OS cells
- recruitment of coexpressed GFP-PAXX / mCherry-XLF to DNA damage sites with Ku70 mutations [4]: compromised to various extents
